Converted amounts (≈) assume the structure as drawn. “And” between values parts separate entries of the source, which are not always exact repeats. Identical values can stand only once.
Experiments:
[1] = tested on: THP-1 cells; experiment: MTT assay on THP-1 cells (CV75); format: cell-based, human; settings: THP-1 cells, 24 h
Method in brief: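 THP-1 cells seeded at 1×10^5 cells/well, grown 24 h at 37 °C/5% CO2, then exposed to a dilution series for 24 h (6 replicates). MTT added for 3 h, formazan dissolved in DMSO, absorbance read at 570 nm; CV75 derived from % viability.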

[2] = Thermodynamic solubility assay (modified shake flask, LC-MS/MS); settings: Milli-Q water, pH=7, 25° C., 24 h, 3 separate determinations; for solubility at 24 h: 25 °C, pH 7, water, thermodynamic from solid
Method in brief: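 Excess compound was shaken in water (pH 7) at 300 rpm and 25° C for 24 h. The supernatant was cleared by two centrifugations at 23,000 g for 20 min. Concentration was quantified by LC-MS/MS (ESI+) against a four-point standard curve.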

[3] = Skin permeation study, Franz diffusion cell; format: in vitro ADME, porcine; settings: for Cumulative amount at 8th hour: 1% w/v in deionized water; for Cumulative amount at 8th hour / Cumulative amount comparison of PPD vs derivatives (times less than PPD) / Permeated through skin into receptor / Recovered in donor compartment / Recovered in skin / Recovered in skin outside diffusion area / Recovered in skin swabs / Recovered on parafilm and in washes: 8 h; for Permeated through skin into receptor / Recovered in donor compartment / Recovered in skin / Recovered in skin outside diffusion area / Recovered in skin swabs / Recovered on parafilm and in washes: mass balance; for recovery at 8 h, 1 % w/v: pig, end of 8 h, read-out: Total recovery (mean percentage parent compound recovery)
Description: In each Franz cell, a piece of pig ear skin prepared to a thickness of […] was clamped securely. 5 mL of PBS solution was added to the receiver compartment which was purged of air bubbles to ensure maximal contact of the skin piece with the solution. Donor solution was prepared by dissolving N1-N13 in deionized water at 1% w/v, and 900 μL was added to the donor compartment. The study was conducted for 8 h, and aliquots of 200 μL were removed from the receiver solution and topped up with fresh PBS at each timepoint of 15-minutes intervals for the first hour and every hour after that.
For mass balance, at the end of 8 h, skin pieces and swabs of the top and bottom surface of the skin were collected and stored in ACN for N1-N13 extraction. Donor solution and receiver solution were also collected.
The aliquot samples collected were subjected to 2-step extraction using 750 μL of dichloromethane (DCM). […] The solvent was dried using the TurboVap, and then reconstituted with 198 μL of 0.1% formic acid in 50% methanol in water and spiked with 2 μL of ANP (internal standard). The processed aliquot samples and mass balance samples were then sent for analysis using LC-MS/MS. The compounds' steady state fluxes and permeability coefficients were then calculated by fitting the solution to Fick's […] of diffusion at the steady state (linear part) of each experimental cumulative amount curve.

[4] = tested on: HaCaT cells; experiment: MTT assay on HaCaT cells; format: cell-based; settings: Homo sapiens; HaCaT cells, 72 h, MTT; read-out: IC50
Description: HaCaT (human, adult, low calcium, high temperature, skin keratinocyte) cell suspension was adjusted to 5×10^3 cells per well and seeded in 96-well plates, then incubated at 37° C. with 5% CO2. After 24 h, 10 mM stock solutions of N1-N13 in autoclaved milli-Q water were prepared and serially diluted concentrations were added to the wells. Each concentration was performed in 6-replicates, and seeded wells with only media and no compound were used as controls while wells with only media were used as blanks. The plate was incubated for 72 h, after which 100 μL of MTT reagent was added and the plate was further incubated for 3 h before adding 100 μL of DMSO. Subsequently, the plate was shaken for 20 min, and then absorbance at 570 nm was determined using a Bio-Tek plate reader.

SMILES	solubility at 24 h [2] [mg/mL]	Solubility [2]	Cumulative amount at 8th hour [3]	Cumulative amount comparison of PPD vs derivatives (times less than PPD) [3]	Permeated through skin into receptor [3]	Recovered in donor compartment [3]	Recovered in skin [3]	Recovered in skin outside diffusion area [3]	Recovered in skin swabs [3]	Recovered on parafilm and in washes [3]	recovery at 8 h, 1 % w/v [3] [%]	CV75 (concentration affording 75% cell viability), 1 × CV75 [1] [µg/mL]	IC50 [4] [µM]
CC(O)COc1cc(N)ccc1N (stereo not drawn) [Compound N10, 1-(2,5-diaminophenoxy)propan-2-ol]	78 to 100 (≈ 428 to 549 mM)	78 + 2.5 mg/ml	0.008 μg/cm^2	633	<0.001 % of applied compound dose	95.0 % of applied compound dose	0.04 % of applied compound dose	0.003 % of applied compound dose	0.05 % of applied compound dose	0.006 % of applied compound dose	95.1 ± 1.4	117	283
CCC(=O)COc1cc(N)ccc1N [Compound N11, 1-(2,5-diaminophenoxy)butan-2-one]	45 (≈ 232 mM)	–	0.00794 μg/cm^2	680	<0.001 % of applied compound dose	93.7 % of applied compound dose	0.06 % of applied compound dose	0.002 % of applied compound dose	0.025 % of applied compound dose	0.005 % of applied compound dose	93.8 ± 1.3	65.4	196
C=C(C)Oc1cc(N)ccc1N [Compound N12, 2-(prop-1-en-2-yloxy)benzene-1,4-diamine]	32 (≈ 195 mM)	–	0.0145 μg/cm^2 and 0.0144 μg/cm^2	–	<0.001 % of applied compound dose	96.0 % of applied compound dose	0.02 % of applied compound dose	0.0045 % of applied compound dose	0.05 % of applied compound dose	0.007 % of applied compound dose	96.1 ± 1	44.7	127

Second part, led by results:

solubility at 24 h [2] [mg/mL]	Solubility [2]	Cumulative amount at 8th hour [3]	Cumulative amount comparison of PPD vs derivatives (times less than PPD) [3]	Permeated through skin into receptor [3]	Recovered in donor compartment [3]	Recovered in skin [3]	Recovered in skin outside diffusion area [3]	Recovered in skin swabs [3]	Recovered on parafilm and in washes [3]	recovery at 8 h, 1 % w/v [3] [%]	SMILES	CV75 (concentration affording 75% cell viability), 1 × CV75 [1] [µg/mL]	IC50 [4] [µM]
78 to 100 (≈ 423 to 543 mM)	92 + 3.0 mg/ml	0.00843 μg/cm^2	640	<0.001 % of applied compound dose	95.0 % of applied compound dose	0.06 % of applied compound dose	0.0018 % of applied compound dose	0.02 % of applied compound dose	0.004 % of applied compound dose	95.1 ± 1.3	Nc1ccc(N)c(OCOCO)c1 [Compound N8, ((2,5-diaminophenoxy)methoxy)methanol]	141	219
65 to 72 (≈ 386 to 428 mM)	72 + 3.4 mg/ml	–	445	<0.001 % of applied compound dose	94.5 % of applied compound dose	0.05 % of applied compound dose	0.0022 % of applied compound dose	0.03 % of applied compound dose	0.003 % of applied compound dose	94.6 ± 1.5	Nc1ccc(N)c(OCCO)c1 [Compound N9, 2-(2,5-diaminophenoxy)ethan-1-ol]	126	272
38 (≈ 210 mM)	–	0.0106 μg/cm^2	–	<0.001 % of applied compound dose	93.0 % of applied compound dose	0.03 % of applied compound dose	0.003 % of applied compound dose	0.02 % of applied compound dose	0.003 % of applied compound dose	93.1 ± 1.2	CNCCOc1cc(N)ccc1N [Compound N13, 2-(2-(methylamino)ethoxy)benzene-1,4-diamine]	54.3	120

Source: patent US20240197596A1, “COMPOUNDS USEFUL AS HAIR DYES” (National University of Singapore, priority 2021, published 2024)
